The source made the active and inactive calls. The calls are words filed in the database; no cut-off is given here.
Experiments:
MCF7 [1] = test: Induction of apoptosis in human MCF7 cells at 50 uM incubated for 24 hrs by Hoechst 33342 staining; assay type: functional, cell-based
K562 = test: Cytotoxicity against human K562 cells assessed as inhibition of cell growth at 10 ug/ml incubated for 48 hrs by MTT assay; assay type: functional, cell-based
HeLa [2] = test: Cytotoxicity against human HeLa cells assessed as inhibition of cell growth at 10 ug/ml incubated for 48 hrs by MTT assay; assay type: functional, cell-based
MCF7 [3] = test: Cytotoxicity against human MCF7 cells assessed as inhibition of cell growth at 10 ug/ml incubated for 48 hrs by MTT assay; assay type: functional, cell-based
HepG2 [4] = test: Cytotoxicity against human HepG2 cells assessed as inhibition of cell growth at 10 ug/ml incubated for 48 hrs by MTT assay; assay type: functional, cell-based
SK-OV-3 = test: Cytotoxicity against human SKOV3 cells assessed as inhibition of cell growth at 10 ug/ml incubated for 48 hrs by MTT assay; assay type: functional, cell-based
HepG2 [5] = test: cells; assay type: functional, cell-based; details: Homo sapiens, HepG2, 48 h
Description: Cytotoxicity against human HepG2 cells assessed as inhibition of cell growth incubated for 48 hrs by MTT assay

PANC-1 = test: Cytotoxicity against human PANC1 cells assessed as inhibition of cell growth at 10 ug/ml incubated for 48 hrs by MTT assay; assay type: functional, cell-based
cells [6] = assay type: functional, cell-based; details: Homo sapiens, Huh-7, 48 h
Description: Cytotoxicity against human HuH7 cells assessed as inhibition of cell growth incubated for 48 hrs by MTT assay

MCF7 [7] = test: cells; assay type: functional, cell-based; details: Homo sapiens, MCF7, 48 h
Description: Cytotoxicity against human MCF7 cells assessed as inhibition of cell growth incubated for 48 hrs by MTT assay

A-375 = test: Cytotoxicity against human A375 cells assessed as inhibition of cell growth at 10 ug/ml incubated for 48 hrs by MTT assay; assay type: functional, cell-based
HeLa [8] = test: Induction of apoptosis in human HeLa cells incubated for 24 hrs by Annexin V-FITC/PI staining based flow cytometry (reference value: 3.37%); assay type: functional
HeLa [9] = test: Induction of apoptosis in human HeLa cells incubated for 12 hrs by Annexin V-FITC/PI staining based flow cytometry (reference value: 3.37%); assay type: functional
A549 = test: Cytotoxicity against human A549 cells assessed as inhibition of cell growth at 10 ug/ml incubated for 48 hrs by MTT assay; assay type: functional, cell-based
cells [10] = assay type: functional, cell-based; details: Homo sapiens, HCCC9810, 48 h
Description: Cytotoxicity against human HCCC9810 cells assessed as inhibition of cell growth incubated for 48 hrs by MTT assay

MCF7 [11] = test: Induction of apoptosis in human MCF7 cells assessed as increase in PARP cleavage incubated for 24 hrs by Western blotting method; assay type: functional, cell-based
MDA-MB-231 = test: cells; assay type: functional, cell-based; details: Homo sapiens, MDA-MB-231, 48 h
Description: Cytotoxicity against human MDA-MB-231 cells assessed as inhibition of cell growth incubated for 48 hrs by MTT assay

MDA-MB-468 = test: cells; assay type: functional, cell-based; details: Homo sapiens, MDA-MB-468, 48 h
Description: Cytotoxicity against human MDA-MB-468 cells assessed as inhibition of cell growth incubated for 48 hrs by MTT assay

Compound	Activity (MCF7 [1])	growth inhibition (GI) (K562)	growth inhibition (GI) (HeLa [2])	growth inhibition (GI) (MCF7 [3])	growth inhibition (GI) (HepG2 [4])	growth inhibition (GI) (SK-OV-3)	IC50 (HepG2 [5])	growth inhibition (GI) (PANC-1)	IC50 (cells [6])	IC50 (MCF7 [7])	growth inhibition (GI) (A-375)	Activity (HeLa [8])	Activity (HeLa [9])	growth inhibition (GI) (A549)	IC50 (cells [10])	Activity (MCF7 [11])	IC50 (MDA-MB-231)	IC50 (MDA-MB-468)
O=C1OC(c2ccccc2)=N[C@@]12[C@H](c1ccc(C(F)(F)F)cc1)[C@H]1CCCN1[C@]21C(=O)Nc2ccccc21	Active	Active	Active	Active	Active	Active	8.7 µM	Active	7.9 µM	8.1 µM	Active	44.64%	16.17%	Active	7.2 µM	Active	4.2 µM	3.4 µM
O=C1OC(c2ccccc2)=N[C@@]12[C@H](c1cccc(Cl)c1)[C@H]1CCCN1[C@]21C(=O)Nc2ccccc21	–	Active	Active	Active	Active	Active	–	Active	–	–	Active	–	–	Active	–	–	–	–
CN1C[C@@H](c2ccccc2)[C@@]2(N=C(c3ccccc3)OC2=O)[C@@]12C(=O)Nc1ccccc12	–	Active	Active	Active	Active	Active	–	Active	–	–	Active	–	–	Active	–	–	–	–
O=C1OC(c2ccccc2)=N[C@@]12[C@H](c1ccc(Cl)c(Cl)c1)[C@H]1CCCN1[C@]21C(=O)Nc2ccccc21	–	Active	Active	Active	Active	Active	–	Active	–	–	Active	–	–	Active	–	–	–	–
O=C1OC(c2ccccc2)=N[C@@]12[C@H](c1ccc(Cl)c(Cl)c1)[C@H]1CCCN1[C@]21C(=O)N(Cc2ccccc2)c2ccccc21	–	Active	Active	Active	Active	Active	–	Active	–	–	Active	–	–	Active	–	–	–	–
COc1cc([C@@H]2[C@H]3CCCN3[C@]3(C(=O)N(Cc4ccccc4)c4ccccc43)[C@]23N=C(c2ccccc2)OC3=O)cc(OC)c1OC	–	Active	Active	Active	Active	Active	–	Active	–	–	Active	–	–	Active	–	–	–	–
CNC(=O)c1cc(Oc2ccc(NC(=O)Nc3ccc(Cl)c(C(F)(F)F)c3)cc2)ccn1 [SORAFENIB]	–	–	–	–	–	–	6.7 µM	–	7.1 µM	5.5 µM	–	–	–	–	> 10 µM	–	5.1 µM	4.9 µM
O=C1OC(c2ccccc2)=N[C@@]12[C@H](c1ccccc1)[C@H]1CSCN1[C@]21C(=O)Nc2ccccc21	–	Active	Active	Active	Active	Active	–	Active	–	–	Active	–	–	Active	–	–	–	–
CN1C[C@@H](c2ccco2)[C@@]2(N=C(c3ccccc3)OC2=O)[C@@]12C(=O)N(Cc1ccccc1)c1ccccc12	–	Active	Active	Active	Active	Active	–	Active	–	–	Active	–	–	Active	–	–	–	–
O=C1OC(c2ccccc2)=N[C@@]12[C@H](c1ccccc1)[C@H]1CCCN1[C@]21C(=O)N(Cc2ccccc2)c2ccccc21	–	Active	Active	Active	Active	Active	–	Active	–	–	Active	–	–	Active	–	–	–	–
CN1C(=O)[C@@]2(c3ccccc31)N(C)C[C@@H](c1cccc(Cl)c1)[C@@]21N=C(c2ccccc2)OC1=O	–	Active	Active	Active	Active	Active	–	Active	–	–	Active	–	–	Active	–	–	–	–
CN1C[C@@H](c2ccccc2)[C@@]2(N=C(c3ccccc3)OC2=O)[C@@]12C(=O)N(Cc1ccccc1)c1ccccc12	–	Active	Active	Active	Active	Active	–	Active	–	–	Active	–	–	Active	–	–	–	–
CN1C[C@@H](c2ccc(Cl)c(Cl)c2)[C@@]2(N=C(c3ccccc3)OC2=O)[C@@]12C(=O)N(Cc1ccccc1)c1ccccc12	–	Active	Active	Active	Active	Active	–	Active	–	–	Active	–	–	Active	–	–	–	–
O=C1OC(c2ccccc2)=N[C@@]12[C@H](c1ccccc1)CN[C@]21C(=O)Nc2ccccc21	–	Active	Active	Active	Active	Active	–	Active	–	–	Active	–	–	Active	–	–	–	–
O=C1OC(c2ccccc2)=N[C@@]12[C@H](c1ccccc1)[C@H]1CCCN1[C@]21C(=O)Nc2ccccc21	–	Active	Active	Active	Active	Active	–	Active	–	–	Active	–	–	Active	–	–	–	–
O=C1OC(c2ccccc2)=N[C@@]12[C@H](c1cccc(Cl)c1)[C@H]1CCCN1[C@]21C(=O)Nc2ccc(Cl)cc21	–	Active	Active	Active	Active	Active	–	Active	–	–	Active	–	–	Active	–	–	–	–
